Experimental data published in ChEMBL document CHEMBL1909046, “DrugMatrix in vitro pharmacology data”.

Tests used:
[1] = DRUGMATRIX: Sodium/nucleoside co-transporter radioligand binding (ligand: nitrobenzylthioinosine); format: cell membranes, Cavia porcellus, Dunkin-Hartley, Cerebral cortex, Membrane; details: Not Active = under 50% inhibition at 10 µM
[2] = molecular target: T1, 5-hydroxytryptamine receptor 2C (Homo sapiens, UniProt P28335); assay: DRUGMATRIX: Serotonin (5-Hydroxytryptamine) 5-HT2C radioligand binding (ligand: [3H] Mesulergine); format: cell membranes, CHO-K1, Membrane; details: Not Active = under 50% inhibition at 10 µM
T1 sequence (P28335 whole entry): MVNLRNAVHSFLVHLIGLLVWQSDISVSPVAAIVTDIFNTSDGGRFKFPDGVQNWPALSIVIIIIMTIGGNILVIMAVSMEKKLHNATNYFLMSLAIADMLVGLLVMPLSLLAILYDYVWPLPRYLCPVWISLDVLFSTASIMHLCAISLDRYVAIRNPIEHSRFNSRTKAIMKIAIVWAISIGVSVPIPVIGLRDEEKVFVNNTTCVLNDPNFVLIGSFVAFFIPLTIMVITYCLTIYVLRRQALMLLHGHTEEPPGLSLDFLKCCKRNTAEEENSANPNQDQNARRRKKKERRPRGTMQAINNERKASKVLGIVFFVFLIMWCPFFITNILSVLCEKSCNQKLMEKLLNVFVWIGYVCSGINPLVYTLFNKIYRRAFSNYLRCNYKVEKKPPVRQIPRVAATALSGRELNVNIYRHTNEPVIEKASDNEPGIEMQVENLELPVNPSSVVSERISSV

[3] = molecular target: Beta-1 adrenergic receptor (Homo sapiens, UniProt P08588); assay: DRUGMATRIX: Adrenergic beta1 radioligand binding (ligand: [125I] Cyanopindolol); format: cell membranes, CHO-K1, Membrane; details: cho-k1; Not Active = under 50% inhibition at 10 µM
Beta-1 adrenergic receptor, sequence (P08588 whole entry): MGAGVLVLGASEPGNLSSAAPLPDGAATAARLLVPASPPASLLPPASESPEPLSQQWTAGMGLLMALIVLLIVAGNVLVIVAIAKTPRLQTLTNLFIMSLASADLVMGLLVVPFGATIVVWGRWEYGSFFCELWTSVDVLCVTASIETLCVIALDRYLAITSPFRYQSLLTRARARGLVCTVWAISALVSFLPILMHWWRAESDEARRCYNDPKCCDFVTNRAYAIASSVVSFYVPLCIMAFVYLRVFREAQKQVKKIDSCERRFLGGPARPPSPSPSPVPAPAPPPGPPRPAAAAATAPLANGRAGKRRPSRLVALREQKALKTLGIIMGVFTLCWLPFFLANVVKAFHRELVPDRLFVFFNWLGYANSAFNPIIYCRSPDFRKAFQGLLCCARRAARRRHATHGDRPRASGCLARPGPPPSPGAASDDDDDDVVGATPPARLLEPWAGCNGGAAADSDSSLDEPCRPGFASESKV

[4] = molecular target: Mitogen-activated protein kinase 3 (Homo sapiens, UniProt P27361); assay: DRUGMATRIX: Protein Serine/Threonine Kinase, ERK1 enzyme inhibition (substrate: Myelin Basic Protein); set-up: species or system Escherichia coli; details: Not Active = under 50% inhibition at 10 µM
Mitogen-activated protein kinase 3, sequence (P27361 whole entry): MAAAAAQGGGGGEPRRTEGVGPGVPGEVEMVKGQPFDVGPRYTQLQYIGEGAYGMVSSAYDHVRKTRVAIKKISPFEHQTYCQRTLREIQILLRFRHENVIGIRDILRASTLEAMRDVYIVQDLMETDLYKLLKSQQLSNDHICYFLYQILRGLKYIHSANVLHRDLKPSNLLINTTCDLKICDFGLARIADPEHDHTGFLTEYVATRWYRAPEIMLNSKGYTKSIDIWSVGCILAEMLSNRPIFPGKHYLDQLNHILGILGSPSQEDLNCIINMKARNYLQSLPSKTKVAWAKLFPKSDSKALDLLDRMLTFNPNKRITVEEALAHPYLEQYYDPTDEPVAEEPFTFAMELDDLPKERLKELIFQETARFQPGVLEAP

[5] = DRUGMATRIX: Tumor Necrosis Factor (TNF), Non-Selective radioligand binding (ligand: [125I] TNF-alpha); format: cell membranes, Membrane; details: u-937; Not Active = under 50% inhibition at 10 µM
D(4) dopamine receptor = molecular target: T2, D(4) dopamine receptor (Homo sapiens, UniProt P21917); assay: DRUGMATRIX: Dopamine D4.2 radioligand binding (ligand: [3H] Spiperone); format: cell membranes, Membrane; details: cho-k1; Not Active = under 50% inhibition at 10 µM
T2 sequence (P21917 whole entry): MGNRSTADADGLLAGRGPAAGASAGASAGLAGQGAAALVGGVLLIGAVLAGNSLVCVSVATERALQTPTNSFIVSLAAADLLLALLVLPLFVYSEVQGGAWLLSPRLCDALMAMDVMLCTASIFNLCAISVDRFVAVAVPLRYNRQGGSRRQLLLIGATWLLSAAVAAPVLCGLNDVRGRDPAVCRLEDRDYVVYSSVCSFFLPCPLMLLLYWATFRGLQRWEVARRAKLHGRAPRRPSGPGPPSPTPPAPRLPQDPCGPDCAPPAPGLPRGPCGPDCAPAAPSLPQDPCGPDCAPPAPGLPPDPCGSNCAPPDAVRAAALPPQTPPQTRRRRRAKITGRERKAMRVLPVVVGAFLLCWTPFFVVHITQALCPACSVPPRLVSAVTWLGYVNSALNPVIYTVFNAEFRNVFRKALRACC

[6] = molecular target: Protein kinase C alpha type (Homo sapiens, UniProt P17252); format: cell-based; details: sf9;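 note: inhibition of PKCalpha kinase activity measured in an enzyme assay with histone as the phosphorylation substrate; in other assays of this panel Not Active means under 50% inhibition at 10 µM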
[7] = molecular target: Sigma non-opioid intracellular receptor 1 (Homo sapiens, UniProt Q99720); assay: DRUGMATRIX: Sigma1 radioligand binding (ligand: [3H] Haloperidol); format: cell membranes, Jurkat, Membrane; details: Not Active = under 50% inhibition at 10 µM
Sigma non-opioid intracellular receptor 1, sequence (Q99720 whole entry): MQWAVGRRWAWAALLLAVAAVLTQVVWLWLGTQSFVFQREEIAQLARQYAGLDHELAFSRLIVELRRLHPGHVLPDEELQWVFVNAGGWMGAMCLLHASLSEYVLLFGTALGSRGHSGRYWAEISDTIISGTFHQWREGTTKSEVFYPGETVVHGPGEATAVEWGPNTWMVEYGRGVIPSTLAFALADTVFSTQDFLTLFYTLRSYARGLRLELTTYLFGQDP

SMILES | IC50 [1] | Ki [1] | IC50 ([2]; cho-k1) | IC50 [3] | IC50 [4] | IC50 [5] | Ki [5] | IC50 (D(4) dopamine receptor) | IC50 [6] | IC50 ([7]; jurkat) | IC50 ([7]; read-out: IC50) | Ki ([7]; read-out: Ki) | IC50 ([2]; read-out: IC50) | Ki ([2]; read-out: Ki)
CCc1c2c(nc3ccc(OC(=O)N4CCC(N5CCCCC5)CC4)cc13)-c1cc3c(c(=O)n1C2)COC(=O)[C@]3(O)CC [IRINOTECAN] | Not Active | Not Active | Not Active | Not Active | Not Active | Not Active | Not Active | Not Active | Not Active | Not Active | – | – | – | –
CCCN(CCC)C(=O)C(CCC(=O)O)NC(=O)c1ccccc1 (configuration not stated) [PROGLUMIDE] | Not Active | Not Active | Not Active | Not Active | Not Active | Not Active | Not Active | Not Active | Not Active | Not Active | – | – | – | –
CCCC(CCC)C(=O)O [VALPROIC ACID] | Not Active | Not Active | Not Active | Not Active | Not Active | Not Active | Not Active | Not Active | Not Active | Not Active | – | – | – | –
Cc1ccccc1C(=O)N1CCC(Cc2ccccc2)CC1 | Not Active | Not Active | Not Active | Not Active | Not Active | Not Active | Not Active | Not Active | Not Active | Not Active | – | – | – | –
OC(CCN1CCCCC1)(c1ccccc1)C1CCCCC1 (configuration not stated) [TRIHEXYPHENIDYL] | Not Active | Not Active | Not Active | Not Active | Not Active | Not Active | Not Active | Not Active | Not Active | – | 108 nM | 45 nM | – | –
Cc1ccc(S(=O)(=O)NC(=O)NN2CC3CCCC3C2)cc1 (configuration not stated) [GLICLAZIDE] | Not Active | Not Active | Not Active | Not Active | Not Active | Not Active | Not Active | Not Active | Not Active | Not Active | – | – | – | –
N=C(N)NC(=O)c1nc(Cl)c(N)nc1N [AMILORIDE] | Not Active | Not Active | Not Active | Not Active | Not Active | Not Active | Not Active | Not Active | Not Active | Not Active | – | – | – | –
CC(C)(Oc1ccc(C2CCCc3ccccc32)cc1)C(=O)O (configuration not stated) [NAFENOPIN] | Not Active | Not Active | Not Active | Not Active | Not Active | Not Active | Not Active | Not Active | Not Active | Not Active | – | – | – | –
Cc1cc2cc3c(C)cc(=O)oc3c(C)c2o1 [TRIOXSALEN] | Not Active | Not Active | – | Not Active | Not Active | Not Active | Not Active | Not Active | Not Active | Not Active | – | – | 2360 nM | 1230 nM
Oc1ccc(OCc2ccccc2)cc1 [MONOBENZONE] | Not Active | Not Active | Not Active | Not Active | Not Active | Not Active | Not Active | Not Active | Not Active | Not Active | – | – | – | –
COc1cccc2c1C(=O)c1c(O)c3c(c(O)c1C2=O)C[C@@](O)(C(=O)CO)C[C@@H]3O[C@H]1C[C@H](N)[C@@H](O)[C@H](C)O1 [EPIRUBICIN] | Not Active | Not Active | Not Active | Not Active | Not Active | Not Active | Not Active | Not Active | Not Active | Not Active | – | – | – | –
C#C[C@]1(O)CC[C@H]2[C@@H]3CCc4cc(OC)ccc4[C@H]3CC[C@@]21C [MESTRANOL] | Not Active | Not Active | Not Active | Not Active | Not Active | Not Active | Not Active | Not Active | Not Active | Not Active | – | – | – | –
